Results on 18 molecules are retold here after US9278942B2, “Non-steroidal compounds as androgen receptor modulators” (FLX Discoveries Oy, priority 2011, dated 2016).

Experiment [1] concerns the target T1, human AR (Homo sapiens, UniProt P10275).
T1 construct: expressed in transfected cells; host or cells: COS-1
T1 sequence (P10275 1-920): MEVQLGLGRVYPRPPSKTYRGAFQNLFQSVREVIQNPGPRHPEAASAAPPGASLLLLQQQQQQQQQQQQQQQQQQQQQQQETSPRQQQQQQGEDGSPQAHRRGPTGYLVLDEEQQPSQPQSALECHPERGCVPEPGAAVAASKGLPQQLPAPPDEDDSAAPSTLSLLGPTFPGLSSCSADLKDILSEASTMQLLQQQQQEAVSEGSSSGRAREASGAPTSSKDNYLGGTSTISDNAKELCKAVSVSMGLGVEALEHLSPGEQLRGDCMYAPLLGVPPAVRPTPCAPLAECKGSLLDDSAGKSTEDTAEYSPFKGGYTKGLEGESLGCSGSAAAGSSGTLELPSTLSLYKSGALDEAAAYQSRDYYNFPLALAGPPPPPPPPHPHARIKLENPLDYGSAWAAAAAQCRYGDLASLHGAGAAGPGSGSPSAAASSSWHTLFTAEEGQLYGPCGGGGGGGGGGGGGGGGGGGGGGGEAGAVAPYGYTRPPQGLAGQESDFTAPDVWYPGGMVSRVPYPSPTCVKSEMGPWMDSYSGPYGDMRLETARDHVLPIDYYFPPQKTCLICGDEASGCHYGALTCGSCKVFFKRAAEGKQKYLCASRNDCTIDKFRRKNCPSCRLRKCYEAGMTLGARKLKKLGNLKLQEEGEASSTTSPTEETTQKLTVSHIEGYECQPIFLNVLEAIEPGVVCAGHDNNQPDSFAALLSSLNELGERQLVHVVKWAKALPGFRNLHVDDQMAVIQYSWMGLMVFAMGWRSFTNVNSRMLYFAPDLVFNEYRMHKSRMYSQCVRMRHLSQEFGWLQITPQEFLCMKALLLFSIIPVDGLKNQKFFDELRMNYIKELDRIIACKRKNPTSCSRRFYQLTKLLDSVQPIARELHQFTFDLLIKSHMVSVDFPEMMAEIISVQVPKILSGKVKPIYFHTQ
Put plainly: AR antagonism assay: inhibition of transcriptional activation of AR (Probasin-luc reporter, COS-1 cells). The class given is cell-based. The following applies: compound 10.0 μM, relative luciferase response: 100% for testosterone (no antiandrogenic effect), 0% for complete antagonism; for remaining activity at 10 µM: COS-1, 18 h, read-out: AR antagonism against 100 nM testosterone ± S.D. The protocol:
Determination of the Antiandrogen Activity.
Testosterone was bought from Sigma Chemical Co. (St. Louis, Mo.) and hydroxyflutamide from Chemos GmbH. One day before transfection, COS-1 cells (from ATCC) were seeded into 1 ml of DMEM (Dulbecco's modified Eagle medium, Gibco) with 10% dextran-charcoal-treated fetal bovine serum and 0.25% (vol/vol) Penicillin-Streptomycin (Euroclone) at a density of 70×10^3 cells/well. After medium change to DMEM 2.5% FBS, the cells were transfected for 24 hours with 10 ng/well of human AR expression vector pSG5-hAR, 100 ng/well of reporter plasmid Probasin-luc, and 10 ng/well of control plasmid pCMV-β-gal by using the TransIT method (Micrus Bio TransIT LT1, Transfection Reagent). After the transfection, the cells received treatment of test compounds giving final concentration of 10 μM for each compound. In the antagonist test the wells were also treated with 100 nM final concentration of testosterone. After 18 hours, the cells were washed, lysed and assayed for luciferase and normalization for β-galactosidase activities and protein concentrations. The cells were washed with 100 μl of cold phosphate buffered saline (PBS) and lysed with 35 μl 1× Reporter lysis Buffer (Promega) and frozen (−70° C.) for 30 minutes. Cell lysates were placed in 1.5-ml propylene tubes and centrifuged at 13200×g for 5 minutes at room temperature. For β-galactosidase assay 10 μl of supernatant from each cell extract was transferred to a 96-well plate (96 well Elisa Microplates, PS, Microcon) and incubated for 10 minutes at 37° C. with 65 μl of reaction mixture consisting 0.76 μl 100×Mg-buffer, 12.5 μl ONPG (4 mg/ml), and 54.3 μl of sodium-phosphate buffer (pH 7). The reaction was stopped with treatment of 125 μl Na2CO3. For luciferase assay 10 μl of the supernatant was transferred to a 96-well plate (Greiner Microlon lumitrac 200) and treated with 30 μl of luciferase assay substrate solution (Promega Luciferase Assay System E1501). For the study of protein concentrations 5 μl of the supernatant was transferred to a 96-well plate (Elisa Microplates, PS, Microcon) and mixed with 200 μl of Bio-rad protein assay reagent. The luciferase activities were measured with Thermo Luminoscan Ascent scanner and the protein concentrations and β-galactosidase activities with Thermo Labsystem Multiscan Ex scanner. Also blank and control samples were measured. During the maintenance, transfection, and treatment with tested compounds the cells were incubated in humidified atmosphere with 5% carbon dioxide at 37° C.

In experiment [2] the target is T1, human AR. Description: Competitive AR binding assay against [3H]-R1881 in transiently transfected COS-1 cells. As to conditions: compound 13.4 μM, [3H]-R1881 1.34 nM, complete inhibition equals 100%; for inhibition at 13.4 µM: read-out: Inhibition of [3H]-R1881 binding at 1.34 nM ± S.D. In a few lines:
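COS-1 cells transfected 24 h with human AR vector, then after 36 h exposed 2 h at 37° C to compound at 10000-fold molar excess over 1.34 nM [3H]-R1881. Cell-bound radioactivity counted in triplicate; result given as % inhibition of labelled R1881 binding.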

Each structure is given as a SMILES string. Read-outs that look alike come from different tables or passages of the source.

As usually defined, the inhibition is the change of the read-out against control, counted positive when it falls. Take `c1ccc2c(C3=NOC4CCCCC34)cccc2c1` (single isomer, unassigned) [Example 33a, 3-Naphthalen-1-yl-3a,4,5,6,7,7a-hexahydro-benzo[d]-isoxazole]: the “AR antagonism against 100 nM testosterone ± S.D.” value (“AR antagonism” below) at human AR [1] stood at 40.2 ± 7.1%. The inhibition at 13.4 µM on human AR [2] (Table 1) was 68.4 ± 1.9%.
Turning to `N#Cc1ccc(C2=NOC3CCCCC23)cc1C(F)(F)F` (stereo not shown) [Example 88ab, 4-(3a,4,5,6,7,7a-Hexahydro-benzo[d]isoxazol-3-yl)-2-trifluoromethyl benzonitrile], the “AR antagonism” value on human AR [1] is given as 9.2 ± 1.7%. The inhibition at 13.4 µM on human AR [2] (Table 2) came out at 99.2 ± 0.5%.
`Fc1ccc(C2=NOC3CCCCCCC23)cc1C(F)(F)F` (stereo not shown) [Example 43b, 3-(4-Fluoro-3-trifluoromethyl-phenyl)-3a,4,5,6,7,8,9,9a-octahydro-cycloocta[d]isoxazole]: on human AR [1], the “AR antagonism” value is 56.6 ± 1.4%. Further, the inhibition at 13.4 µM on human AR [2] (Table 2) stood at 76 ± 0.3%.
`N#Cc1ccc(C2=NOC3CCCCCC23)c(C(F)(F)F)c1` (stereo not shown) [Example 91b, 4-(4,5,6,7,8,8a-Hexahydro-3aH-cyclohepta[d]isoxazol-3-yl)-3-trifluoromethyl benzonitrile]: the “AR antagonism” value on human AR [1] is 27.2 ± 4.8%. In addition, on human AR [2] (Table 2), the “Inhibition of [3H]-R1881 binding at 1.34 nM ± S.D.” value (shortened to “Inhibition of [3H]-R1881 binding”) amounted to 87.4 ± 2.7%.
`O=[N+]([O-])c1ccc(C2=NOC3CCCCCC23)c(C(F)(F)F)c1` (stereo not shown) [Example 42a, 3-(4-Nitro-2-trifluoromethyl-phenyl)-4,5,6,7,8,8a-hexahydro-3aH-cyclohepta[d]isoxazole]: the remaining activity at 10 µM at human AR [1] came to 17.4 ± 1.5%. Further, the inhibition at 13.4 µM at human AR [2] (Table 2) was determined as 90.5 ± 3.1%; at human AR [2] (Table 3), 91.4 ± 3.8%.
On to `Fc1ccc(C2=NOC3CCCCCCC23)c(C(F)(F)F)c1` (stereo not shown) [Example 44b, 3-(4-Fluoro-2-trifluoromethyl-phenyl)-3a,4,5,6,7,8,9,9a-octahydro-cycloocta[d]isoxazole], for which the “AR antagonism” value on human AR [1] came to 35.6 ± 7.8%. Also, on human AR [2] (Table 3), the “Inhibition of [3H]-R1881 binding” value is 85.2 ± 3.8%.
`Fc1ccc(C2=NOC3CCCCCC23)c(C(F)(F)F)c1` (stereo not shown) [Example 40a, 3-(4-Fluoro-2-trifluoromethyl-phenyl)-4,5,6,7,8,8a-hexahydro-3aH-cyclohepta[d]isoxazole]: the remaining activity at 10 µM at human AR [1] was 28.8 ± 2%. On human AR [2] (Table 2), the inhibition at 13.4 µM was determined as 88.8 ± 3.1%.
As to `O=[N+]([O-])c1ccc(C2=NOC3CCCCCCC23)c(C(F)(F)F)c1` (stereo not shown) [Example 46b, 3-(4-Nitro-2-trifluoromethyl-phenyl)-3a,4,5,6,7,8,9,9a-octahydro-cycloocta[d]isoxazole], the “AR antagonism” value on human AR [1] was found to be 2.2 ± 0.8%. At human AR [2] (Table 3), the “Inhibition of [3H]-R1881 binding” value came to 90.4 ± 3.8%.
On to `N#Cc1cccc(C2=NOC3CCCCCC23)c1C(F)(F)F` (stereo not shown) [Example 95a, 3-(4,5,6,7,8,8a-Hexahydro-3aH-cyclohepta[d]isoxazol-3-yl)-2-trifluoromethyl-benzonitrile], for which the remaining activity at 10 µM on human AR [1] is 14.4 ± 1.9%. The inhibition at 13.4 µM at human AR [2] (Table 3) was found to be 96.2 ± 0.8%.
Taken in the same sequence, the figures for `O=[N+]([O-])c1ccc(C2=NOC3CCCCCCC23)cc1C(F)(F)F` (stereo not shown) [Example 45ab, 3-(4-Nitro-3-trifluoromethyl-phenyl)-3a,4,5,6,7,8,9,9a-octahydro-cycloocta[d]isoxazole] were 27.8 ± 1% and 85.7 ± 3.8%.
As for `O=[N+]([O-])c1ccc(C2=NOC3CCCCC23)c(C(F)(F)F)c1` (single isomer, unassigned) [Example 38a, 3-(4-Nitro-2-trifluoromethyl-phenyl)-3a,4,5,6,7,7a-hexahydro-benzo-[d]-isoxazole], the “AR antagonism” value at human AR [1] is 2.9 ± 0.5%. Moreover, the inhibition at 13.4 µM at human AR [2] (Table 1) stood at 94.5 ± 0.5%.
In the case of `N#Cc1ccc(C2=NOC3CCCC23)cc1C(F)(F)F` (single isomer, unassigned) [Example 85a, 4-(4,5,6,6a-Tetrahydro-3aH-cyclopenta[d]isoxazol-3-yl)-2-trifluoromethyl-benzonitrile], at human AR [1], the “AR antagonism” value worked out at 44.9 ± 3.6%. The inhibition at 13.4 µM at human AR [2] (Table 2) was found to be 87.6 ± 0.3%.
As for `Fc1ccc(C2=NOC3CCCCCC23)cc1C(F)(F)F` (stereo not shown) [Example 39ab, 3-(4-Fluoro-3-trifluoromethyl-phenyl)-4,5,6,7,8,8a-hexahydro-3aH-cyclohepta[d]isoxazole], at human AR [1], the remaining activity at 10 µM came out at 43.8 ± 2.4%. Moreover, on human AR [2] (Table 2), the inhibition at 13.4 µM came to 55.7 ± 5.8%.
In the case of `O=[N+]([O-])c1ccc(C2=NOC3CCCCCCC23)c(C(F)(F)F)c1` (stereo not shown) [Example 46a, 3-(4-Nitro-2-trifluoromethyl-phenyl)-3a,4,5,6,7,8,9,9a-octahydro-cycloocta[d]isoxazole], the remaining activity at 10 µM on human AR [1] is 3.1 ± 1.7%. Also, on human AR [2] (Table 3), the inhibition at 13.4 µM was 86.4 ± 1.8%.
Regarding `N#Cc1ccc(C2=NOC3CCCCCCC23)c(C(F)(F)F)c1` (single isomer, unassigned) [Example 93b, 4-(3a,4,5,6,7,8,9,9a-Octahydro-cycloocta[d]isoxazol-3-yl)-3-trifluoromethyl-benzonitrile], the “AR antagonism” value at human AR [1] is reported as 65.5 ± 9.0%. Moreover, the “Inhibition of [3H]-R1881 binding” value on human AR [2] (Table 3) was found to be 76.0 ± 4.8%.
On to `N#Cc1ccc(C2=NOC3CCCCCCC23)cc1C(F)(F)F` (stereo not shown) [Example 92ab, 4-(3a,4,5,6,7,8,9,9a-Octahydro-cycloocta[d]isoxazol-3-yl)-2-trifluoromethyl-benzonitrile], for which, on human AR [1], the remaining activity at 10 µM was found to be 24 ± 1.7%. For the same molecule, at human AR [2] (Table 2), the inhibition at 13.4 µM was 85.8 ± 1.3%.
For the molecule `Fc1ccc(C2=NOC3CCCC23)c(C(F)(F)F)c1` (stereo not shown) [Example 20b, 3-(4-Fluoro-2-trifluoromethyl-phenyl)-4,5,6,6a-tetrahydro-3aH-cyclopenta[d]isoxazole], the “AR antagonism” value at human AR [1] was found to be 37.4 ± 7.3%. In addition, on human AR [2] (Table 3), the “Inhibition of [3H]-R1881 binding” value is 85.3 ± 2.8%.
`Clc1ccc(C2=NOC3CCCCC23)cc1` (single isomer, unassigned) [Example 32a, 3-(4-Chloro-phenyl)-3a,4,5,6,7,7a-hexahydro-benzo[d]-isoxazole]: the “AR antagonism” value on human AR [1] was determined as 40.9 ± 2.4%. Besides, at human AR [2] (Table 1), the “Inhibition of [3H]-R1881 binding” value was determined as 30.5 ± 5.4%.
